Literature values in paper PMC5863612 (Chemical Science, 2017).

Tested on: βPGM
Settings: for Km: previously recorded result

Row | Km [µM] | Molecule | Inhibition of βPGM (reported range)
1 | – | fluorine | low millimolar range
2 | 0.72 ± 0.04 | O=P(O)(O)OC[C@H]1O[C@@H](OP(=O)(O)O)[C@H](O)[C@@H](O)[C@@H]1O [βG16BP, β-glucose-1,6-bisphosphate] | –
3 | 14.7 | O=P(O)(O)O[C@@H]1O[C@H](CO)[C@@H](O)[C@H](O)[C@H]1O [βG1P, β-D-glucose 1-phosphate] | –
